Data as given in US11179412B2, “Methods of treating conditions involving elevated inflammatory response” (University of Pittsburgh—Of the Commonwealth System of …, priority 2017, dated 2021).
Counter-ions that a name gives are not always drawn.

These compounds were tested on STING activation (IFNβ release) in iBMDMs (assay: IFNβ release ELISA after STING ligand (or LPS) stimulation, iBMDMs). Settings: 16 h, 10 µM.
Assay type: cell-based, mouse
In short: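 iBMDMs were stimulated with a STING ligand such as 3′3′-cGAMP, or with LPS. Secreted IFNβ in culture medium was measured by commercial mouse or human IFNβ ELISA.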
`C=C1C[C@@H]2[C@H](CC[C@]3(C)C(=O)CC[C@@H]23)[C@@]2(C)C=CC(=O)C=C12` [Exemestane] was tested, and the “fold increase in IFN-β release” value was 1.11 fold. For `CCc1c(C(=O)C(N)=O)c2c(OCC(=O)O)cccc2n1Cc1ccccc1` [Varespladib (LY315920), Varespladib], the “fold increase in IFN-β release” value was 1.18 fold.

Same assay, conditions: iBMDMs; 3′3′-cGAMP 10 μg/ml, 16 hours; compound 10 μM
In the case of `Cc1cc(OCCCS(C)(=O)=O)cc(C)c1-c1cccc(COc2ccc3c(c2)OC[C@H]3CC(=O)O)c1` [TAK-875], the “fold increase in IFN-β release” value is reported as 1.17 fold. In the case of `Nc1nc(N)c2nc(-c3cccc(O)c3)c(-c3cccc(O)c3)nc2n1` [TG100-115], the “fold increase in IFN-β release” value is reported as 2.65 fold. In the case of `COc1nc(C)cnc1NS(=O)(=O)c1cccnc1-c1ccc(-c2nnco2)cc1` [Zibotentan (ZD4054), Zibotentan], the “fold increase in IFN-β release” value is reported as 1.17 fold. For `O=C(NCc1cccc(O)c1)Nc1nc(-c2ccncc2)cs1` [RKI-1447], the “fold increase in IFN-β release” value was 2.41 fold. With `C[C@]1(O)C[C@@H](c2nc(-c3ccc4ccc(-c5ccccc5)nc4c3)c3c(N)nccn32)C1` [OSI-906 (Linsitinib), Linsitinib] the “fold increase in IFN-β release” value was 0.66 fold. In the case of `CC(C)CC(=O)Nc1[nH]nc2c1CN(C(=O)C1CCN(C)CC1)C2(C)C` [PHA-793887], the “fold increase in IFN-β release” value is reported as 2.28 fold. In the case of `CCOC(=O)C1=C(N)Oc2ccc(Br)cc2C1C(C#N)C(=O)OCC` (stereo not drawn) [HA14-1], the “fold increase in IFN-β release” value is reported as 0.45 fold. For `CN1CCN(c2nc(C3=C(c4c[nH]c5ccccc45)C(=O)NC3=O)c3ccccc3n2)CC1` [Sotrastaurin], the “fold increase in IFN-β release” value was 0.59 fold. For `COc1ccc2cc([C@H](C)C(=O)O)ccc2c1` [Naproxen], the “fold increase in IFN-β release” value was 1.46 fold. For `O=C(Oc1cc(S(=O)(=O)c2ccccc2)ccc1[N+](=O)[O-])c1ccc(Cl)cc1` [BTB06584], the “fold increase in IFN-β release” value was 3.11 fold. `NC(=O)c1ncn([C@@H]2O[C@H](CO)[C@@H](O)[C@H]2O)c1N` [Acadesine] was tested, and the “fold increase in IFN-β release” value was 1.02 fold. With `CCO.N#CC(=C(/N)Sc1ccccc1N)/C(C#N)=C(\N)Sc1ccccc1N` [U0126-EtOH] the “fold increase in IFN-β release” value was 0.70 fold. With `CC(C)N(CCC(c1ccccc1)c1cc(CO)ccc1O)C(C)C` (stereo not drawn) [5-hydroxymethyl Tolterodine] the “fold increase in IFN-β release” value was 1.10 fold. For `NC(=O)Nc1cc(-c2cccc(F)c2)sc1C(=O)N[C@H]1CCCNC1` [AZD7762], the “fold increase in IFN-β release” value was 0.45 fold. For `O=C(/C=C/c1ccc(O)c(O)c1)OCCc1ccccc1` [Caffeic Acid Phenethyl Ester], the “fold increase in IFN-β release” value was 0.44 fold. With `Nc1nc(CC(=O)Nc2ccc(CCNC[C@H](O)c3ccccc3)cc2)cs1` [Mirabegron] the “fold increase in IFN-β release” value was 0.69 fold. With `O=c1ncccn1[C@@H]1O[C@H](CO)[C@@H](O)[C@H]1O` [Zebularine] the “fold increase in IFN-β release” value was 1.50 fold. With `O=C(O)c1ccc(Nc2ncc3c(n2)-c2ccc(Cl)cc2C(c2c(F)cccc2F)=NC3)cc1` [MLN8054] the “fold increase in IFN-β release” value was 0.77 fold. In the case of `CCc1cncnc1N1CCN(Cc2nc3ccc(C(F)(F)F)cc3[nH]2)CC1` [PF-4708671], the “fold increase in IFN-β release” value is reported as 2.12 fold. With `CC(C)(C)n1nc(-c2ccc(Cl)cc2)c2c(N)ncnc21` [PP2] the “fold increase in IFN-β release” value was 0.14 fold. `C[C@H](N[C@@H](CCc1ccccc1)C(=O)O)C(=O)N1CCC[C@H]1C(=O)O.O.O` [Enalaprilat Dihydrate] was tested, and the “fold increase in IFN-β release” value was 2.71 fold. With `O=C(O)CNC(=O)c1c(O)c2ccccc2n(Cc2ccccc2)c1=O` [IOX2] the “fold increase in IFN-β release” value was 0.44 fold. `CC1=C(C(=O)Nc2cc3cn[nH]c3cc2F)C(c2ccc(C(F)(F)F)cc2)CC(=O)N1` (stereo not drawn) [GSK429286A] was tested, and the “fold increase in IFN-β release” value was 2.79 fold. For `COc1ccc2c(c1)c(CC(=O)N1CCOCC1)c(C)n2C(=O)c1ccc(Cl)cc1` [BML-190], the “fold increase in IFN-β release” value was 0.35 fold. `CN(C)CCOc1ccc(/C(=C(/CCCl)c2ccccc2)c2ccccc2)cc1` [Toremifene Citrate] was tested, and the “fold increase in IFN-β release” value was 0.19 fold. With `COc1cc(Nc2ncc(F)c(Nc3ccc4c(n3)N(COP(=O)(O)O)C(=O)C(C)(C)O4)n2)cc(OC)c1OC` [Fostamatinib (R788), Fostamatinib] the “fold increase in IFN-β release” value was 0.69 fold. For `C[C@H](Oc1cc(-c2cnn(C3CCNCC3)c2)cnc1N)c1c(Cl)ccc(F)c1Cl` [(S)-crizotinib], the “fold increase in IFN-β release” value was 3.05 fold. `COc1cc2c(cc1O)CC[C@@H]1[C@@H]2CC[C@]2(C)[C@@H](O)CC[C@@H]12` [2-Methoxyestradiol (2-MeOE2), 2-Methoxyestradiol] was tested, and the “fold increase in IFN-β release” value was 2.62 fold. In the case of `O=C(NNc1nc2cc(F)ccc2n2cccc12)c1cnccn1` [SC144], the “fold increase in IFN-β release” value is reported as 2.63 fold. `O=C(c1cn(Cc2cncn2Cc2ccc(Br)cc2)cc1-c1cccc2ccccc12)N1CCOCC1` [LB42708] was tested, and the “fold increase in IFN-β release” value was 1.35 fold. For `CC1=C(C(=O)OC2CCCCC2)C(c2ccc([N+](=O)[O-])cc2)C2=C(CC(C)(C)CC2=O)N1` (stereo not drawn) [FLI-06], the “fold increase in IFN-β release” value was 2.06 fold. `Cc1cn(-c2cc(NC(=O)c3ccc(C)c(Nc4nccc(-c5cccnc5)n4)c3)cc(C(F)(F)F)c2)cn1` [Nilotinib (AMN-107), Nilotinib] was tested, and the “fold increase in IFN-β release” value was 0.77 fold. For `CN(C)C(=O)Nc1cccc(-c2ccc(N(C)C)cc2)c1` [Atglistatin], the “fold increase in IFN-β release” value was 0.91 fold. In the case of `O=c1cc(-c2ccc(O)cc2)oc2cc(O)cc(O)c12` [Apigenin], the “fold increase in IFN-β release” value is reported as 0.44 fold. For `Fc1cc(F)c2c(c1)C1C=CCC1C(c1cccnc1)N2` (stereo not drawn) [Golgicide A], the “fold increase in IFN-β release” value was 4.19 fold. For `Cc1ccccc1C(=O)Nc1ccc(C(=O)N2CCCC(O)c3cc(Cl)ccc32)c(C)c1` (stereo not drawn) [Tolvaptan], the “fold increase in IFN-β release” value was 1.20 fold. For `NC(=O)c1cccc(-c2cc(Nc3ccc(OC(F)(F)F)cc3)ncn2)c1` [GNF-2], the “fold increase in IFN-β release” value was 0.56 fold. In the case of `CCCC(=O)Nc1cccc(NC(=O)c2ccccc2Br)c1` [ML161], the “fold increase in IFN-β release” value is reported as 0.95 fold. In the case of `CC(=O)Nc1nc2c(Oc3cc(-c4ccc(C(F)(F)F)cc4)ncn3)cccc2s1` [AMG-517], the “fold increase in IFN-β release” value is reported as 1.18 fold. With `CCC(COC(=O)c1cc(OC)c(OC)c(OC)c1)(c1ccccc1)N(C)C` (stereo not drawn) [Trimebutine] the “fold increase in IFN-β release” value was 0.30 fold. In the case of `COc1cc(OC)c(/C=C/S(=O)(=O)Cc2ccc(OC)c(NCC(=O)O)c2)c(OC)c1` [Rigosertib (ON-01910), Rigosertib], the “fold increase in IFN-β release” value is reported as 0.96 fold. For `CN(Cc1cnc2nc(N)nc(N)c2n1)c1ccc(C(=O)N[C@@H](CCC(=O)O)C(=O)O)cc1` [Methotrexate], the “fold increase in IFN-β release” value was 0.68 fold. For `COc1cc2c(Nc3ccc(Br)cc3F)ncnc2cc1OCC1CCN(C)CC1` [Vandetanib (ZD6474), Vandetanib], the “fold increase in IFN-β release” value was 0.25 fold. In the case of `CCC(=O)NCC[C@@H]1CCc2ccc3c(c21)CCO3` [Ramelteon], the “fold increase in IFN-β release” value is reported as 0.56 fold. `CCCSc1nc(N[C@@H]2C[C@H]2c2ccc(F)c(F)c2)c2nnn([C@@H]3C[C@H](OCCO)[C@@H](O)[C@H]3O)c2n1` [Ticagrelor] was tested, and the “fold increase in IFN-β release” value was 1.70 fold. OG-L002 was tested, and the “fold increase in IFN-β release” value was 1.06 fold. For `C[C@@H]1COCCN1c1cc(C2(S(C)(=O)=O)CC2)nc(-c2cccc3[nH]ccc23)n1` [AZ20], the “fold increase in IFN-β release” value was 0.32 fold. With `O=[N+]([O-])C=Cc1ccc2c(c1)OCO2` [3,4-Methylenedioxy-β-nitrostyrene] the “fold increase in IFN-β release” value was 0.26 fold. In the case of `C=CC(=O)Nc1cc(Nc2nccc(-c3cn(C)c4ccccc34)n2)c(OC)cc1N(C)CCN(C)C` [AZD9291], the “fold increase in IFN-β release” value is reported as 0.85 fold.
